Source: paper PMC12138978, “Mu Opioid Receptor Positive Allosteric Modulator BMS-986122 Confers Agonist-Dependent G Protein Subtype Signaling Bias” (Biochemistry, 2025)
Several values for one entry are separate records, joined by “and”; a condition that tells them apart may be missing. Equal entries are not always repeated. Where two headings read alike, the source gives them in different places.

Key:
[1] = molecular target: T1, human MOR signaling through Gαi1 (Homo sapiens, UniProt P35372); type: cell-based
T1 construct: host or cells: HEK 293T, transient
T1 sequence (P35372 whole entry): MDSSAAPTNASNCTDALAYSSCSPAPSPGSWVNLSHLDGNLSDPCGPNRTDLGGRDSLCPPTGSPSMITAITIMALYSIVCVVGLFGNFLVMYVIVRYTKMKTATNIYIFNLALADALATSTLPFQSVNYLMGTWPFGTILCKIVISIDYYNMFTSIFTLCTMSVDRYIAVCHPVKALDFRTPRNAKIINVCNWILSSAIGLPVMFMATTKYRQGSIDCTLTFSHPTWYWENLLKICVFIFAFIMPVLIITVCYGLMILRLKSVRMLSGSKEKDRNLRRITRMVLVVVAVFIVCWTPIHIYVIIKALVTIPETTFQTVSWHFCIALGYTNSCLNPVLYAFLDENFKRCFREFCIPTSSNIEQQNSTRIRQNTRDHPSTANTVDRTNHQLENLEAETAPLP
T1 sequence (P63096 2-354 partner limits assumed): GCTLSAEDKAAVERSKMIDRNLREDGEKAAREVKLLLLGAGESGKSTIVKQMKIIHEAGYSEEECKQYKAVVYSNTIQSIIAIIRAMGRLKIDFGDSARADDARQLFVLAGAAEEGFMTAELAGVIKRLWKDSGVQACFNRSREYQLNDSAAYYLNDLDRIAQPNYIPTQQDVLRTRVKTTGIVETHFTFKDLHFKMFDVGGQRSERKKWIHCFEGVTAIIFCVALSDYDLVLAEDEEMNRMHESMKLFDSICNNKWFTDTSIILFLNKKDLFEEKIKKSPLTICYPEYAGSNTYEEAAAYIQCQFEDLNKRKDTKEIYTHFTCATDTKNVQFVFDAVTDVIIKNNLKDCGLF

[2] = molecular target: T2, human MOR signaling through Gαi2 (Homo sapiens, UniProt P35372); type: cell-based; details: for Kb: read-out: KB (affinity of BMS-986122)
T2 construct: host or cells: HEK 293T, transient
T2 sequence (P35372 whole entry): as the sequence (P35372 whole entry) above
T2 sequence (P04899 2-355 partner limits assumed): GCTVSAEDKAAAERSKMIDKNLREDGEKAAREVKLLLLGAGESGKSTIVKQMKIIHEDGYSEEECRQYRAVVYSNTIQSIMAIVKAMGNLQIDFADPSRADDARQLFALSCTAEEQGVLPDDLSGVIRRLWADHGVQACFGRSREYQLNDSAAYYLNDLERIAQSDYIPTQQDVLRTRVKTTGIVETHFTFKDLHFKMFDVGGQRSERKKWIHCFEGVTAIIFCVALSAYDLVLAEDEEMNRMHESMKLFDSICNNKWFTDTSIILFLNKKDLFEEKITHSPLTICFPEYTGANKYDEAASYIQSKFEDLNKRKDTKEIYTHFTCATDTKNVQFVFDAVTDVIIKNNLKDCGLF

[3] = molecular target: T3, human MOR signaling through Gαi3 (Homo sapiens, UniProt P35372); type: cell-based
T3 construct: host or cells: HEK 293T, transient
T3 sequence (P35372 whole entry): as the sequence (P35372 whole entry) above
T3 sequence (P08754 2-354 partner limits assumed): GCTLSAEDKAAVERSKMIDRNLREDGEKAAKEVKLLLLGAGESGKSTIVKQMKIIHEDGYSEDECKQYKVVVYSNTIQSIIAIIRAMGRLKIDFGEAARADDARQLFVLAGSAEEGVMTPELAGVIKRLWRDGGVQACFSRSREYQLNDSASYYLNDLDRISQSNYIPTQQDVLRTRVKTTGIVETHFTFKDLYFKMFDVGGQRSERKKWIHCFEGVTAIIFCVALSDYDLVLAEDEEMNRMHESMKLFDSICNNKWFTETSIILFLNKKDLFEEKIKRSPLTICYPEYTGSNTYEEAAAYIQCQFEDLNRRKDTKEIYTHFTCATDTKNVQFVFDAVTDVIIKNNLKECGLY

[4] = molecular target: T4, human MOR signaling through GαoA (Homo sapiens, UniProt P35372); type: cell-based
T4 construct: host or cells: HEK 293T, transient
T4 sequence (P35372 whole entry): as the sequence (P35372 whole entry) above
T4 sequence (P09471 2-354 partner limits assumed): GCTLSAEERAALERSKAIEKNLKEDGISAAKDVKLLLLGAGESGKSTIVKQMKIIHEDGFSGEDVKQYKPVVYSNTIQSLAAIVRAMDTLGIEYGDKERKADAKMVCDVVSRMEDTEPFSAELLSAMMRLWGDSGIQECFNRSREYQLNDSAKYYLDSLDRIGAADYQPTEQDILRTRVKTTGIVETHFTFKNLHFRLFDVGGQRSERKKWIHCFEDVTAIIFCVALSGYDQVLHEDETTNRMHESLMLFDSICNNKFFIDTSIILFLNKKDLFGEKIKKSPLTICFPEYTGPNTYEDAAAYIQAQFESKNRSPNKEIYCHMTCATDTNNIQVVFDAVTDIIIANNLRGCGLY

[5] = molecular target: T5, human MOR signaling through GαoB (Homo sapiens, UniProt P35372); type: cell-based; details: for Kb: read-out: KB (affinity of BMS-986122)
T5 construct: host or cells: HEK 293T, transient
T5 sequence (P35372 whole entry): as the sequence (P35372 whole entry) above
T5 sequence (P09471 2-354 isoform P09471-2 partner limits assumed): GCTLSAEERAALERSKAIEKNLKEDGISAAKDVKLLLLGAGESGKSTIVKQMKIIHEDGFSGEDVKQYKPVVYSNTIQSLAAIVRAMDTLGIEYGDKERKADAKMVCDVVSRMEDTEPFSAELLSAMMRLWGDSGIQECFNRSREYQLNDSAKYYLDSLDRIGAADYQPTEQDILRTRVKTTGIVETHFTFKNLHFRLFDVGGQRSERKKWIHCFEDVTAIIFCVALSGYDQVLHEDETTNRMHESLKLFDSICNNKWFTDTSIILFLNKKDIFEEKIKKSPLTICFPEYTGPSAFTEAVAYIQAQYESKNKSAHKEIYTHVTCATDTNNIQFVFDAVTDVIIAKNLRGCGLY

[6] = molecular target: T6, human MOR signaling through Gαz (Homo sapiens, UniProt P35372); type: cell-based; details: Gαz, up to 10 μM, absence of any orthosteric agonist, no RGS20
T6 construct: host or cells: HEK 293T, transient
T6 sequence (P35372 whole entry): as the sequence (P35372 whole entry) above
T6 sequence (P19086 2-355 partner limits assumed): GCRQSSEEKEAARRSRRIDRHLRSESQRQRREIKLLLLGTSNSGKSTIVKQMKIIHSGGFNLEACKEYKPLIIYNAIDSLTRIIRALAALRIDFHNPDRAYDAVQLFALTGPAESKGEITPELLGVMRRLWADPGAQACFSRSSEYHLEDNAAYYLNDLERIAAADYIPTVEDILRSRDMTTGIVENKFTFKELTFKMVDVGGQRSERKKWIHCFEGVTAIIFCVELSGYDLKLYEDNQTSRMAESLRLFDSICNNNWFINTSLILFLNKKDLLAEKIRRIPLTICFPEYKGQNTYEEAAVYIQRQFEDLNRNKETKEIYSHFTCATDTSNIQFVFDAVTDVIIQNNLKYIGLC

[7] = molecular target: T7, human MOR signaling through Gαi3^K349R, E350G mutant (Homo sapiens, UniProt P35372); experiment: nanoBRET assay, MOR signaling through mutant Gαi3 K349R, E350G; type: cell-based; details: orthosteric agonist 7-hydroxymitragynine, read-out: KB (affinity of BMS-986122)
T7 construct: host or cells: HEK 293T, transient
T7 sequence (P35372 whole entry, stated change not applied): as the sequence (P35372 whole entry) above
T7 sequence (P08754 with tags, fused parts or gaps K349R/E350G partner): as the sequence (P08754 2-354 partner limits assumed) above, with K348R, E349G counted along it
Experimental: (§1) Human embryonic kidney (HEK) 293T cells (ATCC, Manassas, VA) maintained and transfected as described in previous work, with some modifications. Cells were cultured on 0.01% poly-L-lysine (Millipore Sigma, Darmstadt, Germany)-coated 10 cm dishes in Dulbecco’s modified Eagle medium (GIBCO, Grand Island, NY) supplemented with 5% fetal bovine serum, 1% nonessential amino acids, 1 mM sodium pyruvate, and 100 U/mL penicillin/streptomycin, maintained in an incubator at 37 °C in a 5% CO2 atmosphere. Prior to transfection, 3.0 × 10^6 cells were reseeded onto Matrigel-coated (Corning, Inc., Corning NY) 6 cm dishes and incubated for 4 h at 37 °C and 5% CO2. […]
(§2) BRET measurements between mVenus-Gβ1γ2 and masGRK3ct-nLuc for nanoBRET, and Gγ-GFP2 and Gα-rLuc8 for TruPATH, were performed to determine agonist-dependent activation of each Gα protein of interest in the presence and absence of BMS-986122, in live HEK 293T cells. […] For TruPATH, cells were incubated for 30 min at 25 °C prior to luminescence emissions being read at 515 and 410 nm. […]
(§3) This form of the operational model was selected because all parameters are constrained by default to be equal for each data set except for τ, which had no constraints. […] Statistical significance between Δlog(τ) values for each Gα subunit were calculated via one-way ANOVA with Tukey’s posthoc analysis. […]

[8] = molecular target: T8, human MOR signaling through Gαi3-oBct (Homo sapiens, UniProt P35372); experiment: nanoBRET assay, MOR signaling through Gαi3-oBct chimera (C-terminus of GαoB); type: cell-based; details: orthosteric agonist 7-hydroxymitragynine, read-out: KB (affinity of BMS-986122)
T8 construct: host or cells: HEK 293T, transient
T8 sequence (P35372 whole entry): as the sequence (P35372 whole entry) above
T8 sequence (P08754 with tags, fused parts or gaps K345A/N346K/K349R/E350G partner limits assumed): as the sequence (P08754 2-354 partner limits assumed) above, with K344A, N345K, K348R, E349G counted along it
Experimental: as §1, §2, §3

[9] = molecular target: T9, human MOR signaling through Gαi2^N346 K mutant (Homo sapiens, UniProt P35372); experiment: nanoBRET assay, MOR signaling through mutant Gαi2 N346K; type: cell-based; details: orthosteric agonist 7-hydroxymitragynine, read-out: KB (affinity of BMS-986122)
T9 construct: host or cells: HEK 293T, transient
T9 sequence (P35372 whole entry, stated change not applied): as the sequence (P35372 whole entry) above
T9 sequence (P04899 with tags, fused parts or gaps N347K partner): as the sequence (P04899 2-355 partner limits assumed) above, with N346K counted along it
Experimental: as §1, §2, §3

[10] = molecular target: T10, human MOR signaling through Gαz with RGS20 (Homo sapiens, UniProt P35372); experiment: nanoBRET assay, MOR signaling through Gαz with RGS20 (RGSz1) coexpression; type: cell-based; details: RGS20 (RGSz1) co-expressed
T10 construct: host or cells: HEK 293T, transient
T10 sequence (P35372 whole entry): as the sequence (P35372 whole entry) above
T10 sequence (P19086 2-355 partner limits assumed): as the sequence (P19086 2-355 partner limits assumed) above

[11] = test system: human MOR signaling through different Gα subunits; experiment: nanoBRET assay, comparison or average across Gα subunits; type: cell-based; details: 7-hydroxymitragnine as agonist, 10 μM PAM, relative transduction coefficients compared between Gαi3 and GαoB
MOR = test system: MOR; set-up: method as in Burford et al.; details: endomorphin-1 as orthosteric agonist, allosteric ternary complex model; ref Burford et al.; cited from earlier work

COc1ccc(C2SCCN2S(=O)(=O)c2ccc(Cl)cc2)cc1Br (stereo not drawn) [BMS-986122]
α (affinity cooperativity factor of BMS-986122) [1]: 5.0 ± 0.2 and 6.9 ± 0.9 | β (efficacy cooperativity factor of BMS-986122) [1]: 10 ± 0.8 | Response of PAM alone (allosteric agonism) ([1]; Gαi1, up to 10 μM, absence of any orthosteric agonist): no response | Kb ([1]; read-out: KB (affinity of BMS-986122)): 2500 nM and 3400 nM | α (affinity cooperativity factor of BMS-986122) [2]: 5.9 ± 0.6 and 3.2 ± 0.3 | β (efficacy cooperativity factor of BMS-986122) [2]: 3.3 ± 0.3 | Kb ([2]; Gαi2 (WT), orthosteric agonist 7-Hydroxymitragynine): 3100 ± 700 nM | β (efficacy cooperativity factor of BMS-986122) ([2]; Gαi2, orthosteric agonist 7-Hydroxymitragynine, functional allosteric model): 10 ± 2.8 | Response of PAM alone (allosteric agonism) ([2]; Gαi2, up to 10 μM, absence of any orthosteric agonist): no response | Kb [2]: 2400 nM and 1500 nM and 1900 nM | Kb ([3]; Gαi3 (WT), orthosteric agonist 7-Hydroxymitragynine, read-out: KB (affinity of BMS-986122)): 2300 ± 800 nM | β (efficacy cooperativity factor of BMS-986122) ([3]; Gαi3, orthosteric agonist 7-Hydroxymitragynine, functional allosteric model): 5.9 ± 1.1 | Response of PAM alone (allosteric agonism) ([3]; Gαi3, up to 10 μM, absence of any orthosteric agonist): no response | α (affinity cooperativity factor of BMS-986122) [4]: 7.1 ± 1.0 and 4.3 ± 0.7 | β (efficacy cooperativity factor of BMS-986122) [4]: 4.2 ± 0.3 | β (efficacy cooperativity factor of BMS-986122) ([4]; GαoA, orthosteric agonist 7-Hydroxymitragynine, functional allosteric model): 12 ± 1.8 | Kb ([4]; GαoA, orthosteric agonist 7-Hydroxymitragynine, read-out: KB (affinity of BMS-986122)): 8000 ± 200 nM | Response of PAM alone (allosteric agonism) ([4]; GαoA, up to 10 μM, absence of any orthosteric agonist): no response | β (efficacy cooperativity factor of BMS-986122) [5]: 4.2 ± 0.8 | Kb ([5]; GαoB (WT), orthosteric agonist 7-Hydroxymitragynine): 540 ± 100 nM | Hill coefficient of R50 curve ([5]; GαoB, BMS-986122 titrated in presence of 10 μM 7-hydroxymitragynine): 3.0 | EC50 ([5]; GαoB, BMS-986122 titrated in presence of constant 10 μM 7-hydroxymitragynine, read-out: R50 (concentration of PAM which gives a half-maximal response)): 670 ± 110 nM | β (efficacy cooperativity factor of BMS-986122) ([5]; GαoB, orthosteric agonist 7-Hydroxymitragynine, functional allosteric model): 15 ± 4.2 | Response of PAM alone (allosteric agonism) ([5]; GαoB, up to 10 μM, absence of any orthosteric agonist): no response | Kb [5]: 620 ± 180 nM | Emax of PAM alone (allosteric agonism) [6]: 21 ± 2% | Kb [7]: 2800 ± 400 nM | Kb [8]: 700 ± 60 nM | Kb [9]: 690 ± 60 nM | Allosteric agonism of PAM alone with RGS20 co-expression [10]: effectively eliminate the allosteric agonism | ΔΔlog(τ)oB-i3 [11]: 0.708 | Affinity cooperativity factor α (MOR): 7.0 | Kb (MOR): 5000 nM
